Source: US9434769B2, “Peptide compositions and methods for inhibiting herpesvirus infection” (priority 2009, dated 2016)
Read-outs that look alike come from different tables or passages of the source.

Legend:
[1] = test system: Towne GFP strain of HCMV; type: cell-based, Human Cytomegalovirus (HCMV); conditions: for inhibition of viral infection: HFF cells, MOI 0.5, 48 hours post infection
Procedure: The Towne strain of HCMV containing the Green Fluorescent Protein (GFP) expression cassette was obtained from Dr. Dan Streblow at the Oregon Health Science University and was propagated in human foreskin fibroblast (HFF) cells. Viral supernatants were collected, centrifuged to clear cell debris, and filtered through a 0.45 μm filter. HFF cells were grown in Dulbecco's modified Eagle medium (DMEM) supplemented with 10% fetal bovine serum (FBS), penicillin G (100 U/mL), streptomycin ([…]), and GLUTAMAX™ L-glutamine supplement (2 mM) from Invitrogen.
Human foreskin fibroblasts were seeded at the density of about 3.5×10^5 cells in each well of a 24-well plate about 24 hours prior to infection. The HFF cells were washed with 1×DPBS, and mock or virus infected for about 90 minutes at room temperature (RT) with the Towne GFP strain of HCMV at about 0.5 multiplicity of infection (MOI), preincubated with a range of concentrations of inhibitory peptides at about 37° C. for about 90 minutes. After the infection, virus mixture was removed and 10% FBS complete DMEM was added to each well and cells were incubated at about 37° C. for about 48 hours. GFP positive cells were visualized about 48 hours post infection by fluorescence microscopy and then quantified using flow cytometry. […] HFF cells were trypsinized, centrifuged, and resuspended in 1% FBS-Dulbecco's phosphate buffered saline (DPBS). GFP positive cells were quantified using flow cytometry (CYTOMICS FC 500 from Beckman Coulter, Fullerton, Calif.).
All of the synthetic peptides were tested at the following concentrations: about 100 μM, 50 μM, 25 μM, 10 μM, 5 μM, 2.5 μM, 1.25 μM, 0.625 μM, 0.3125 μM, 0.156 μM, and 0.078 μM.

[2] = test system: HCMV TRpMIA; test: Inhibition of HCMV TRpMIA infection of HFF cells (IE-1/IE-2 positive cells); type: cell-based, Human Cytomegalovirus (HCMV); conditions: for significance of inhibition of infection: vs non-treated infected control
Procedure: In order to assess the ability of the peptides of the present invention to inhibit a clinically significant HCMV (HCMV TRpMIA), Peptide 174-200 (SEQ ID NO:3), Peptide 233-263 (SEQ ID NO: 4), and Peptide 264-291 (SEQ ID NO: 5), were tested for inhibition of HCMV TRpMIA infection of HFF cells under the assay conditions similar to these described in Example 2 for the Towne strain of HCMV, above. In particular, HFF cells were plated in 96-well plates at a density of about 10,000 cells-per-well about 24 hours […]. Individual inhibitory peptides were evaluated against 0.5 MOI HCMV TRpMIA preincubated with various concentrations in the range of about 0.078 micromolar to about 100 micromolar. The results obtained from these assays are shown in FIG. 13, FIG. 14, and FIG. 15 for Peptide 174-200, Peptide 233-263, and Peptide 264-291, respectively. The degree of HCMV infection was determined by evaluating the number of cells expressing immediate-early 1 (IE-1) or IE-2 HCMV proteins 24 hours post-infection. Treatments resulting in significant reductions in the number of cells that were positive for IE 1, IE-2, or both, compared to non-treated control HCMV infected cells, are denoted by a * (p<0.05), ** (p<0.01), and *** (p<0.001, one-way ANOVA and Tukey's post test). Variants and derivatives of Peptide 233-263 (SEQ ID NO: 4) also were prepared and tested in the same assay. The sequences of the tested variants and derivatives are shown in Table 4, with additions or modifications from SEQ ID NO: 4 shown in boldface type.

[3] = test system: HSV-1 McIntyre strain; test: Inhibition of HSV-1 infection of Vero cells (Crystal Violet staining); type: cell-based, Herpes Simplex Virus 1 (HSV-1); conditions: MOI 0.001, peptide 2.5 to 100 μM; for inhibition of HSV-1 infection: 48 hours
Procedure: FIG. 6 illustrates inhibition of HSV-1 infection by HCMV gB peptides. To evaluate the ability of newly designed HCMV gB-specific peptide to inhibit HSV-1 infection, Vero cells were infected for about 90 minutes at room temperature with HSV-1 (McIntyre strain; MOI=0.001) that was preincubated with a range of concentrations of four different synthetic peptides at about 37° C. for about 90 minutes. Each treatment was done in triplicate, where A=media, B=HSV-1 MOI of 0.001, C=100 μM peptide and virus, D=50 μM peptide and virus, E=25 μM peptide and virus, F=10 μM peptide and virus, G=5 μM peptide and virus, H=2.5 μM peptide and virus. HCMV gB peptides (Peptide 174-200 (SEQ ID NO: 3), Peptide 233-263 (SEQ ID NO: 4), and Peptide 264-291 (SEQ ID NO: 5)) that are within domain II were inhibitory against HSV-1 infection. Peptide 476-494 (SEQ ID NO: 7) corresponds to trimerization domain of HCMV gB that contains extended α-helices important in the formation of HCMV gB homotrimer during fusion of HCMV virion and lipid membrane of the host cell. Overlapping inhibitory HSV-1 peptides span regions 496-510 and 501-515 of HSV-1 gB (SEQ ID NO: 8) and are analogous to HCMV gB Peptide 476-494 (SEQ ID NO: 7).
To evaluate the ability of HCMV gB peptides to inhibit infection by HSV-1, Vero cells were plated at a density of about 1.5×10^5 cells in each well of a 24 well-plate 24 hours prior to infection. The cells were washed and mock- or virus-infected for about 90 minutes at room temperature with HSV-1 McIntyre strain (ATCC) of about 0.001 MOI preincubated with a range of concentrations of four different synthetic peptides at about 37° C. for about 90 minutes. After exposure to the virus, the virus mixture was removed and the cells were overlayed with 2% FBS MEM containing 1% methylcellulose. Cells were incubated for about 48 hours at about 37° C. After about 48 hours, the cells were fixed, stained with Crystal Violet, and air dried.
In FIG. 6, each treatment was done in triplicate, where A=media, B=HSV-1 MOI of 0.001, C=100 μM peptide and virus, D=50 μM peptide and virus, E=25 μM peptide and virus, F=10 μM peptide and virus, G=5 μM peptide and virus, H=2.5 μM peptide and virus. […] Peptide 476-494 (SEQ ID NO: 7) corresponds to the trimerization domain of HCMV gB, which contains extended α-helices important in the formation of HCMV gB homotrimer during fusion of HCMV virion and lipid membrane of the host cell. Overlapping inhibitory HSV-1 peptides that span regions 496-510 and 501-515 of the HSV-1 gB protein (SEQ ID NO: 8) are analogous to HCMV gB peptide 476-494 (SEQ ID NO: 7). As predicted, HCMV Peptide 476-494 (SEQ ID NO: 7) worked best at the concentration of about 2.5 μM.

[4] = 50 micromolar, 24 hours post-infection
[5] = 100 micromolar, 24 hours post-infection
[6] = 25 micromolar to 100 micromolar

Q: How did the “inhibition of viral infection” value ([1]; peptide 50 μM) turn out when “FFIFPNYTIVSDFGRPNAA (human cytomegalovirus glycoprotein B peptide) [Peptide 297-315, synthetic peptide of HCMV gB residues 297-315]” was run?
A: about 40%

Q: Which “significance of inhibition of infection” value [2, 4] does the source give for “HFFATSTGDVVYISPFYNGTNRNASYFG (human cytomegalovirus glycoprotein B peptide) [Peptide 264-291, synthetic peptide of HCMV gB residues 264-291]” here?
A: * (* (p<0.05))

Q: And the “significance of inhibition of infection” value [2, 5]?
A: * (* (p<0.05))

Q: What about the “inhibition of viral infection” value ([1]; peptide 5 μM) of the same sequence?
A: about 70.5%

Q: And the “inhibition of HSV-1 infection” value [3]?
A: inhibited HSV-1 infection

Q: How did the “number of HCMV infected cells versus peptide concentration” value ([1]; decreasing peptide concentration) turn out when “HNLVYAQLQFTYDTLRGYI (human cytomegalovirus glycoprotein B peptide) [Peptide 476-494, synthetic peptide of the trimerization domain of HCMV gB, residues 476-494]” was run?
A: the number of HCMV infected cells decreased as the concentration of this peptide decreased

Q: What about the “inhibitory activity against HCMV strain Towne-GFP” value ([1]; high concentrations tested) of the same sequence?
A: did not show any inhibitory activity

Q: And the “concentration at which the peptide worked best against HSV-1” value [3]?
A: about 2.5 μM

Q: What does the source list for “KDQWHSRGSTWLYRETANLNAMLTITTARSKYPY (Modified HCMV gB peptide) [Peptide 233-263.1]”?
A: inhibition of HCMV TRpMIA infection compared to Peptide 233-263 [2]: less effective; inhibition relative to the controls [2]: some level of inhibition

Q: What does the source list for “KDQWHSRGSTWLYRETANLNAMLTITTARSKYPYHFFATS [Peptide 233-263.4]”?
A: inhibition of HCMV TRpMIA infection compared to Peptide 233-263 [2]: less effective; inhibition relative to the controls [2]: some level of inhibition

Q: For “VTVKDQWHSRGSTWLYRETANLNAMLTITTARSKYPY (Modified HCMV gB peptide) [Peptide 233-263.2]”, which “inhibition of HCMV TRpMIA infection compared to Peptide 233-263” value (“inhibition … compared to Peptide 233-263” below) [2] is on record?
A: less effective

Q: What about the “inhibition relative to the controls” value [2] of the same sequence?
A: some level of inhibition

Q: How did the “significance of inhibition of infection” value ([2]; 25 micromolar, 24 hours post-infection) turn out when “WEIHHINKFAQAYSSYSRVIGGTVFVA [Peptide 174-200]” was run?
A: ** (** (p<0.01))

Q: And the “significance of inhibition of infection” value [2, 4]?
A: * (* (p<0.05))

Q: And the “significance of inhibition of infection” value [2, 5]?
A: *** (*** (p<0.001, one-way ANOVA and Tukey's post test))

Q: And the “inhibition of viral infection” value ([1]; peptide 2.5 μM)?
A: ~62%

Q: And the “inhibition of viral infection” value ([1]; peptide 5 μM)?
A: about 51%

Q: And the “inhibition of viral infection” value ([1]; peptide 100 μM)?
A: about 80%

Q: And the “inhibition of HSV-1 infection” value [3]?
A: inhibited HSV-1 infection

Q: What does the source list for “WHSRGSTWLYRAETANLNAMLTITTARSKYPY (Modified HCMV gB peptide) [Peptide 233-263.5]”?
A: inhibition of HCMV TRpMIA infection compared to Peptide 233-263 [2]: less effective; inhibition relative to the controls [2]: some level of inhibition

Q: How did the “inhibition … compared to Peptide 233-263” value [2] turn out when “WHSRGSTWLYRETANLNAMLTITTARSKYPYGRKKRRQRRRP (human cytomegalovirus glycoprotein B peptide) [Peptide 233-263.8]” was run?
A: less effective

Q: And the “inhibition relative to the controls” value [2]?
A: some level of inhibition

Q: Which “inhibition … compared to Peptide 233-263” value [2] does the source give for “WHSRGSTWLYRETANLNAMLTITTARSKYPYHFF (Modified HCMV gB peptide) [Peptide 233-263.3]” here?
A: less effective

Q: And the “inhibition relative to the controls” value [2]?
A: some level of inhibition

Q: How did the “inhibition … compared to Peptide 233-263” value [2] turn out when “WHSRGSTWLYRETANLNAMLTITTARSKYPYP (Modified HCMV gB peptide) [Peptide 233-263.6]” was run?
A: less effective

Q: What about the “inhibition relative to the controls” value [2] of the same sequence?
A: some level of inhibition

Q: With “WHSRGSTWLYRETANLNAMLTITTARSKYPYRRRRRRRRR (human cytomegalovirus glycoprotein B peptide) [Peptide 233-263.9]” as the sequence, how does the “extent of inhibition of infection” value [2, 6] read?
A: almost complete inhibition

Q: What about the “significance of inhibition of infection” value [2, 6] of the same sequence?
A: *** (*** (p<0.001, one-way ANOVA and Tukey's post test))

Q: What about the “inhibition … compared to Peptide 233-263” value [2] of the same sequence?
A: significant improvement
